Results as given in patent publication US5350768A, “Derivatives of cysteine” (priority 1987, dated 1994).
Where two headings read alike, the source gives them in different places.

How the values were obtained:
[1] = Plasma concentrations and urinary excretion in healthy human volunteers after oral intake
Method: (§1) Therefore, experiments were performed to investigate biological stability and bioavailability of the compounds of formula I, and to compare these with N-acetyl-L-cysteine.
Plasma concentrations and urinary excretion in helthy human volunteers were measured after oral intake of N-acetyl-L-cysteine, and N-isobutyryl-L-cysteine, 1.23 mmole of each.

[2] = Plasma thiol concentrations after intraintestinal injection in anaesthetized rats
Method: as §1
The thiols were injected into the intestines of anaesthetized rats. At various times after the injections blood samples were withdrawn, and plasma thiols analyzed. […] The values given represent mean±SEM, unless otherwise stated.

[3] = Method: as §1

Structure (SMILES)	Cmax ([1]; human, in vivo, po, 1.23 mmol) [µM]	bioavailability / plasma levels after oral intake (in words) ([1]; oral intake)	plasma level after intraintestinal injection (in words) ([2]; rat, in vivo)	concentration ([2]; read-out: concentrations of the thiols in plasma, after injection into intestines of anaesthetized rats, only one experiment performed) [µM]	biological stability (in words) [3]	bioavailability / plasma levels after oral intake (in words) ([1]; human, in vivo, po)	concentration ([2]; rat, in vivo) [µM]	hydrolysis in homogenates [3]
CC(=O)N[C@@H](CS)C(=O)O [N-acetyl-L-cysteine, reference compound]	< 1	poor bioavailability	barely detectable in plasma	0.7	biologically unstable			
CC(C)C(=O)N[C@@H](CS)C(=O)O [N-isobutyryl-L-cysteine]			reached considerable concentrations		much more biologically stable	reached high concentrations in plasma	13 ± 2.9	
CC(C)(C)C(=O)N[C@@H](CS)C(=O)O [N-pivaloyl-L-cysteine]					much more biologically stable		11.8	not hydrolyzed to any measureable extent
